Source: ChEMBL document CHEMBL1150684, “New cytotoxic lupane triterpenoids from the twigs of Coussarea paniculata” (J Nat Prod, 2003)
In brackets after ≈: the same amount, converted by molar mass.

Test system: A2780
Assay: Cytotoxicity against human A2780 cells
Assay type: functional, cell-based

Row | Compound | IC50 [µg/mL]
1 | C=C(C)[C@@H]1CC[C@]2(C)CC[C@]3(C)[C@H](CC[C@@H]4[C@@]5(COC(C)=O)CC[C@H](OC(C)=O)C(C)(C)[C@@H]5CC[C@]43C)[C@@H]12 | 9.6 (≈ 18.2 µM)
2 | CC1(C)CC[C@]2(C(=O)O)CC[C@]3(C)C(=CC[C@@H]4[C@@]5(C)CC[C@H](O)C(C)(C)[C@@H]5CC[C@]43C)[C@@H]2C1 [OLEANOLIC_ACID] | ≥ 20
3 | C=C(C)[C@@H]1CC[C@]2(C(=O)O)CC[C@]3(C)[C@H](CC[C@@H]4[C@@]5(C)CCCC(C)(C)[C@@H]5CC[C@]43C)[C@@H]12 | 17.4 (≈ 39.5 µM)
4 | C=C(C)[C@@H]1CC[C@]2(C=O)CC[C@]3(C)[C@H](CC[C@@H]4[C@@]5(C)CC[C@@H](O)C(C)(C)[C@@H]5CC[C@]43C)[C@@H]12 | ≥ 20
5 | C=C(C)[C@@H]1CC[C@]2(C)CC[C@]3(C)[C@H](CC[C@@H]4[C@@]5(C)CC[C@H](O)C(C)(C)[C@@H]5CC[C@]43C)[C@@H]12 [LUPEOL] | ≥ 20
6 | C=C(C)[C@@H]1CC[C@]2(C)CC[C@]3(C)[C@H](C[C@@H](O)[C@@H]4[C@]56CC[C@H](OC5=O)C(C)(C)[C@@H]6CC[C@]43C)[C@@H]12 | 18 (≈ 39.6 µM)
7 | C=C(C)[C@@H]1CC[C@]2(C)CC[C@]3(C)[C@H](CC[C@@H]4[C@@]5(C)CC[C@H](OC(C)=O)C(C)(C)[C@@H]5CC[C@]43C)[C@@H]12 [LUPENYL ACETATE] | 16
8 | C[C@H]1[C@H](C)CC[C@]2(C(=O)O)CC[C@]3(C)C(=CC[C@@H]4[C@@]5(C)CC[C@H](O)C(C)(C)[C@@H]5CC[C@]43C)[C@H]12 [URSOLIC ACID] | ≥ 20
9 | C=C(C)[C@@H]1CC[C@]2(C(=O)O)CC[C@]3(C)[C@H](CC[C@@H]4[C@@]5(C)CC[C@@H](O)C(C)(C)[C@@H]5CC[C@]43C)[C@@H]12 [EPIBETULINIC ACID] | ≥ 20
10 | C=C(C)[C@@H]1CC[C@]2(COC(C)=O)CC[C@]3(C)[C@H](CC[C@@H]4[C@@]5(C)CC[C@H](OC(C)=O)C(C)(C)[C@@H]5CC[C@]43C)[C@@H]12 [BETULIN DIACETATE] | ≥ 20
11 | C=C(C)[C@@H]1CC[C@]2(C(=O)O)CC[C@]3(C)[C@H](CC[C@@H]4[C@@]5(C)CC[C@H](O)C(C)(C)[C@@H]5CC[C@]43C)[C@@H]12 [BETULINIC ACID] | ≥ 20
